In patent publication US20240002424A1, “HEXOSAMINE COMPOUNDS AND METHODS THEREOF” (National Institute of Immunology, priority 2021, published 2024):

What was measured:
[1] = test system: HL-60 cells; assay: Western blot of total lysates for sLeX (CSLEX1) epitopes; assay type: cell-based, human; conditions: HL-60 total lysates; 50 μM, 72 h
Protocol: Effect of ManNAc analogues on expression of CD15s epitopes: HL-60 cells (3.0×10^5 cells/mL in 10 mL complete medium in 10 cm diameter petri dishes) were incubated with D, 1a, 1b, 1d, 1e, 1f, or 1g (50 mM), along with untreated (U) controls. After 72 h, cells were harvested, washed with PBS (3×5.0 mL), and lysed in RIPA buffer (10^7 cells in […]), containing protease inhibitor cocktail (PIC, 1:100). Protein concentration of the soluble fraction was estimated using the Bradford assay. Proteins from total lysates were resolved by 7.5% SDS-PAGE and blotted onto nitrocellulose membrane (constant current of 250 mA for 3.0 h at 4° C.). Membranes were blocked using non-fat milk (NFM) (5.0% w/v) in PBS and incubated with primary antibodies (5.0 mL PBS containing 5.0% NFM) overnight at 4° C. Membranes were washed with 0.1% PBS-T (0.1% v/v tween-20 in PBS; 3×5.0 mL, five min each at room temperature) followed by incubation with appropriate fluorophore or horse radish peroxidase (HRP) conjugated secondary antibodies for 1.0 h at room temperature. Membranes were washed with 0.1% PBS-T (3×5.0 mL, five min each) and then either directly scanned using Amersham Typhoon fluorescence scanner or developed on photographic films after treatment with enhanced chemiluminescence reagents. At least two independent replicate experiments were performed for all the blots.
The primary and secondary antibodies employed, along with dilution and stock concentration, are given below: Primary antibodies: Anti-CD15s (CSLEX1; IgM, dilution 1:5000; stock concentration 0.5 mg/mL) Anti-CLA (HECA452; IgM, dilution 1:1000, stock concentration 0.5 mg/mL) […] (AC15, IgG, dilution 1:20000, stock concentration 2.2 mg/mL); and Secondary Antibodies: AlexaFluor488-conjugated anti-mouse IgM (1:10000, stock concentration 2.0 mg/mL) AlexaFluor488-conjugated anti-rat IgM (1:10000, stock concentration 0.5 mg/mL) HRP-conjugated anti-mouse IgG (1:10000, stock concentration 0.8 mg/mL) Cy5-conjugated donkey anti-mouse IgG (1:10000, stock concentration 1.4 mg/mL) AlexaFluorplus488-conjugated anti-mouse IgG (1:10000, stock conc. 2.0 mg/mL).

[2] = test system: HL-60 cells; assay: Total and glycoside bound sialic acids by periodate-resorcinol assay; assay type: cell-based, human; conditions: 100 μM, 48 h
Protocol: Total sialic acids were measured following reported procedures. HL-60 cells (3.0×10^5 cells/mL in 10 mL complete medium in 10 cm diameter Petri dishes) were incubated with D, 1a, 1b, 1c, 1d, 1e, 1f, 1g, 2a, or 2b (100 mM each), along with untreated (U) controls. After 48 h, cells were harvested, washed with PBS (3×5.0 mL; 3000×g, for 2.0 min), aliquoted to 2×10^6 cells per sample and resuspended in PBS (150 mL) in 1.5 mL microcentrifuge tubes. Cells were lyzed by three freeze-thaw cycles and the total lysates were subjected to periodate-resorcinol assay. Briefly, lysates (150 mL) were treated with 0.4 M aqueous periodic acid (6.67 mM) or (2.5 mL) and incubated either on ice for 15 min (for measurement of total sialic acids) or at 37° C. for 1.0 h (for measurement of glycoconjugate bound sialic acids). About 10 mL of reagent cocktail was prepared using 6% w/v of aqueous resorcinol (1.0 mL), 2.5 mM copper (II) sulfate (1.0 mL), 44% of concentrated hydrochloric acid (4.4 mL), and water (3.6 mL). The mixture was then treated with the reagent cocktail (250 mL per sample), boiled at 100° C. for 10 min, rapidly quenched in an ice-bath and treated with tert-butanol (250 mL). The contents were centrifuged and the supernatants were aliquoted (200 mL) into 96-well plates and the absorbance at 630 nm was measured. At least three replicates were prepared for each condition.

[3] = test system: neural cell adhesion molecules (NCAM); conditions: cited from earlier work
[4] = test system: HL-60 cells; assay: Cell surface sialyl-Lewis-X (CD15s) by anti-CD15s (CSLEX1) flow cytometry; assay type: cell-based, human; conditions: 50 μM, 24 h
Protocol: Effect of ManNAc analogues on the expression of sialyl-Lewis-X and Lewis-X: HL-60 cells (3.0×10^5 cells/mL in 2.0 mL complete medium in 6 well plate) were treated with D (vehicle), 1a, 1b, 1c, 1d, 1e, 1f, or 1g (50 PM), along with untreated (U) control. After 24 h, cells were harvested and washed with PBS (3×0.5 mL, 3000×g, 3.0 min at room temperature). Prior to last wash, cells were counted using Z2 coulter counter and aliquoted at 2.5×10^5 cells per sample and stained with either mouse anti-human CD15s (CSLEX1) (1.25 μg/mL) or mouse anti-human CD15 (HI98) (2.5 μg/mL) in HEPES/CaCl2) buffer (30 mM HEPES, 110 mM NaCl, 10 mM KCl, 2 mM MgCl2, 10 mM glucose, 1.5 mM CaCl2) containing 0.1% bovine serum albumin, pH 7.3) (total volume of 100 μL) for 30 min at 4° C. Cells were washed with HEPES/CaCl2 buffer (2×0.5 mL) and stained with AlexaFluor488-conjugated anti-mouse IgM (2.5 μg/mL) (for both CD15s and CD15) in 100 μL HEPES/CaCl2 for 30 min at 4° C. Cells were washed with HEPES/CaCl2 buffer (2×0.5 mL), resuspended in PBS (0.2 mL), treated with PI (2.5 μg/ml) and analysed by BD FACSVerse. Samples treated with (i) isotype antibodies followed by secondary antibody and (ii) secondary antibody alone were prepared as controls. Single Cells were gated for PI-negative population for 10,000 events and analysed by flow cytometry. Two replicate samples were prepared for each condition and each sample was counted twice. Three independent experiments were performed. Data was analysed using FlowJo V10. For plotting graph and calculation of significant probability ‘p’ values, two-way ANOVA with Dunnett's multiple comparison tests was employed in GraphPad Prism 8.
Time course of CD15s expression: HL-60 cells (3.0×10^5 cells/mL in 2.5 mL complete medium in 6-well plates) were incubated with D, 1a, 1b, or 1d (50 mM). At each time point, from day 1 to day 6, the cells were harvested from the entire contents of the well, washed, and aliquoted to 5.0×10^5 cells per sample, and immuno-stained using anti-CD15s (CSLEX1) antibody as mentioned above. On day 3, 4, and 5 complete media (1.0 mL) was added to each remaining well in order to compensate for media exhaustion. No contents were removed from the well during the period.

[5] = test system: HL-60 cells; assay: NeuAz expression by SPAAC with DBCO-Cy5 and flow cytometry, competition with 1c; assay type: cell-based, human; conditions: 50 μM with 1c 50 μM, 24 h
Protocol: Estimation of NeuAz expression by 1c in the presence of peracetylated ManNAc analogues: Jurkat cells (3.0×10^5 cells/mL in 3.0 mL per well in 6-well plates) were incubated with (i) D, (ii) 1a, 1b, 1c, or 1d alone (50 mM) or (iii) 1a, 1b, or 1d (50 mM) in combination with 1c (50 mM). After 24 h, cells were harvested, washed using FSB, aliquoted to 5.0×10^5 cells per sample, and processed as mentioned above for estimation of NeuAz expression using DBCO-Cy5 ([…]). Experiments using HL-60 cells were performed using the same procedure.
Having confirmed metabolic acceptability in Jurkat cells, the compounds were tested on HL-60 (human acute myeloid leukemia) cells which are a reliable model for neutrophil adhesion. The effect on competitive suppression of NeuAz expression was studied using 1c as a reporter. HL-60 cells were treated with 1c either alone (50 μM) or in combination with ManNAc analogues (50 μM), including the straight chain derivatives, for 24 h followed by DBCO-Cy5 ligation. […] The decreasing ability of linear alkyl moieties (1d-1g), as a function of chain length, for suppression of NeuAz expression is in contrast to the cycloalkyl moieties. […] Similarly, 1a induced a reduction of 40% compared to only a 15% reduction by 1f.

[6] = test system: HL-60 cells; assay: Cell surface sialyl-Lewis-X (CD15s) by anti-CD15s (CSLEX1) flow cytometry; assay type: cell-based, human; conditions: single dosage 50 μM
[7] = test system: HL-60 cells; assay: Cell density as a measure of proliferation/cytotoxicity; assay type: cell-based, human; conditions: 100 μM, cell density measured at 24, 48, and 72 h
[8] = test system: HL-60 cells; conditions: 10 mM; cited from earlier work

| Compound | sLeX (CSLEX1) bands between 150-100 kDa in western blot [1] | glycoside bound sialic acid levels (in words) [2] | inhibition of polysialic acid attachment to NCAM [3] | increase in binding of CSLEX1 antibody (sLeX), in words [4] | NeuAz expression with respect to 1c alone (100%) [5] [%] | reduction of NeuAz expression with respect to controls [5] [%] | suppression of NeuAz expression (in words) [5] | decrease in total sialic acid levels [2] [fold] | ratio of total sialic acids to glycoside bound sialic acids vs untreated cells [2] | maximum increase in sLeX levels on day 2 ([6]; day 2) [fold] | sLeX levels by day 6 (in words) ([6]; day 6) | day of peak sLeX expression ([6]; time course day 1 to day 6) [days] | increase in binding of CSLEX1 antibody (sLeX) compared to controls [4] [fold] | decrease in cell density [7] [%] | expression of sLeX epitopes (KM93 antibody), particularly on PSGL-1/CD162 [8] |
| --- | --- | --- | --- | --- | --- | --- | --- | --- | --- | --- | --- | --- | --- | --- | --- |
| CCCC(=O)N[C@@H]1[C@@H](OC(C)=O)O[C@H](COC(C)=O)[C@@H](OC(C)=O)[C@@H]1OC(C)=O [Compound 1f, 1,3,4,6-tetra-O-acetyl-2-(1-butanoyl)amino-2-deoxy-α-D-mannopyranose] | moderate increase | comparable to untreated cells | efficient inhibitor | three-fold increase | 85 | 15 | moderate suppression |  |  |  |  |  |  |  |  |
| CCCCC(=O)N[C@@H]1C(OC(C)=O)O[C@H](COC(C)=O)[C@@H](OC(C)=O)[C@@H]1OC(C)=O (stereo partly drawn) [Compound 1g, 1,3,4,6-tetra-O-acetyl-2-(1-pentanoyl)amino-2-deoxy-D-mannopyranose] | moderate increase |  |  |  | 90 | 10 | mild effect | 0.7 | lower ratios | 2.2 | returned to normal levels | 2 | ~2.5 | ~10 |  |
| CCC(=O)N[C@@H]1C(O)O[C@H](CO)[C@@H](O)[C@@H]1O (stereo partly shown) [ManNProp] |  |  |  |  |  |  |  |  |  |  |  |  |  |  | enhanced expression of sLeX epitopes |
